Measurements: patent US20240024488A1, “COMPOUNDS AND USES THEREOF” (Foghorn Therapeutics Inc., priority 2020, published 2024)

Legend:
HiBit-BRM fusion protein = biological target: T1, HiBit-BRM fusion protein (Homo sapiens, UniProt P51531); assay: HiBiT-BRM cell-based degradation assay (Nano-Glo HiBiT Lytic Detection, 24 h); settings: HeLa cell line expressing HiBiT-BRM; for DC50: read-out: BRM HiBit Degradation IC50
T1 construct: expressed in transfected cells
Summary of the method: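 HeLa cells stably expressing HiBiT-BRM were treated for 24 h with compounds (10-point 3-fold dilutions, 30 μM final top dose, in duplicate). HiBiT was detected by lytic LgBiT complementation luminescence. % degradation was normalized to DMSO (high control) and 2 μM of a reference BRM/BRG1 degrader (low control).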

[1] = biological target: T2, HiBit-BRG1 fusion protein (Homo sapiens, UniProt P51532); assay: HiBiT-BRG1 cell-based degradation assay (Nano-Glo HiBiT Lytic Detection, 24 h); settings: HeLa cell line expressing HiBit-BRG1 and LgBit; for Dmax: read-out: BRG1 HiBit Degradation Maximum (%); for DC50: read-out: BRMG1 HiBit Degradation IC50
T2 construct: expressed in transfected cells
T2 sequence (P51532 whole entry, the tested form may be a part): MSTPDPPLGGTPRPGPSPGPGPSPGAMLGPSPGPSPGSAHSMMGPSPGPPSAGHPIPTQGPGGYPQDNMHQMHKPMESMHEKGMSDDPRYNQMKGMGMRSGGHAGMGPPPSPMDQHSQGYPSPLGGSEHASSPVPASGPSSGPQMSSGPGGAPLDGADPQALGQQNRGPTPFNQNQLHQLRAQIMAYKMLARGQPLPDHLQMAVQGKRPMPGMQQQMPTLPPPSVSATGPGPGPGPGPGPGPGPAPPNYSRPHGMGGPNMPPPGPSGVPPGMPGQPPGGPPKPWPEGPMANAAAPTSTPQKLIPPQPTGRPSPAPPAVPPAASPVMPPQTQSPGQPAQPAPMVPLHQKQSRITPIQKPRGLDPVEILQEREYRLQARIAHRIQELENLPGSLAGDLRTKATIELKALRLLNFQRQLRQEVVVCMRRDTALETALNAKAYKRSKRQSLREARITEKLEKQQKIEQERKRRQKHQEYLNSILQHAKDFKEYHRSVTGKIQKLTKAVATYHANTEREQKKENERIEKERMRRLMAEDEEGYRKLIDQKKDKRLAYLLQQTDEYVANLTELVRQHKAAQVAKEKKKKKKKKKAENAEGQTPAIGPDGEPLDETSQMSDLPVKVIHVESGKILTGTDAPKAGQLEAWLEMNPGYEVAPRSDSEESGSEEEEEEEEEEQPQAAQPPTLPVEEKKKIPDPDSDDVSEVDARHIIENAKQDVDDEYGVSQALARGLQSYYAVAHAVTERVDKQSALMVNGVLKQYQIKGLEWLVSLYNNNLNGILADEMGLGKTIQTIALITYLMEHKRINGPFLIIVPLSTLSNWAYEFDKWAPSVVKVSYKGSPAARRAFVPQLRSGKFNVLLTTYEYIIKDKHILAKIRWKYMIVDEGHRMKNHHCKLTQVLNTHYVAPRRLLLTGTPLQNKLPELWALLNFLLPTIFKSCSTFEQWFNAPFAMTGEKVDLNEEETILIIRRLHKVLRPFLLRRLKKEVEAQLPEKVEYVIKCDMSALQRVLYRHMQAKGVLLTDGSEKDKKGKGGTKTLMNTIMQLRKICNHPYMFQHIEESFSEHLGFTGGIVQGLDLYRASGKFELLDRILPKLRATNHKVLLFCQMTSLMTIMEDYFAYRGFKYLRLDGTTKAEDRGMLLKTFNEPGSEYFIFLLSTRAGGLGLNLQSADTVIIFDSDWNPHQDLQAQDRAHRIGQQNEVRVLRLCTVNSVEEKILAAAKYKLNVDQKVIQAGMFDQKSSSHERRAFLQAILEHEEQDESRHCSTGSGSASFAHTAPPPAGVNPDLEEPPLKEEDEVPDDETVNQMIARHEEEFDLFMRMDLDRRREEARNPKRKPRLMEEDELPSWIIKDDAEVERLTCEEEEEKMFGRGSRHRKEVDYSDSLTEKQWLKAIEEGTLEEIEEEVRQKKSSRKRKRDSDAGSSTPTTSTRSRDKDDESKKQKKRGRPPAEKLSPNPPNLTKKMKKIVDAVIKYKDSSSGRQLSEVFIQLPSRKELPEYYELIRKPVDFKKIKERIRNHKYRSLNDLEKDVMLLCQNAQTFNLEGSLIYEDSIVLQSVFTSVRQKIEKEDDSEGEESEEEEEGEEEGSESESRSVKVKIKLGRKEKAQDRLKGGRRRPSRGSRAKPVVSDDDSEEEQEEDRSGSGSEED
Summary of the method: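 Luminescence from Nano-Glo HiBiT lytic detection, read after 24 h compound exposure, scored degradation in a stable HeLa HiBiT-BRG1/LgBit line seeded at 5000 cells/well. DMSO wells defined 0% and 2 μM known BRM/BRG1 degrader wells defined full degradation.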

T1 sequence (P51531 whole entry, the tested form may be a part): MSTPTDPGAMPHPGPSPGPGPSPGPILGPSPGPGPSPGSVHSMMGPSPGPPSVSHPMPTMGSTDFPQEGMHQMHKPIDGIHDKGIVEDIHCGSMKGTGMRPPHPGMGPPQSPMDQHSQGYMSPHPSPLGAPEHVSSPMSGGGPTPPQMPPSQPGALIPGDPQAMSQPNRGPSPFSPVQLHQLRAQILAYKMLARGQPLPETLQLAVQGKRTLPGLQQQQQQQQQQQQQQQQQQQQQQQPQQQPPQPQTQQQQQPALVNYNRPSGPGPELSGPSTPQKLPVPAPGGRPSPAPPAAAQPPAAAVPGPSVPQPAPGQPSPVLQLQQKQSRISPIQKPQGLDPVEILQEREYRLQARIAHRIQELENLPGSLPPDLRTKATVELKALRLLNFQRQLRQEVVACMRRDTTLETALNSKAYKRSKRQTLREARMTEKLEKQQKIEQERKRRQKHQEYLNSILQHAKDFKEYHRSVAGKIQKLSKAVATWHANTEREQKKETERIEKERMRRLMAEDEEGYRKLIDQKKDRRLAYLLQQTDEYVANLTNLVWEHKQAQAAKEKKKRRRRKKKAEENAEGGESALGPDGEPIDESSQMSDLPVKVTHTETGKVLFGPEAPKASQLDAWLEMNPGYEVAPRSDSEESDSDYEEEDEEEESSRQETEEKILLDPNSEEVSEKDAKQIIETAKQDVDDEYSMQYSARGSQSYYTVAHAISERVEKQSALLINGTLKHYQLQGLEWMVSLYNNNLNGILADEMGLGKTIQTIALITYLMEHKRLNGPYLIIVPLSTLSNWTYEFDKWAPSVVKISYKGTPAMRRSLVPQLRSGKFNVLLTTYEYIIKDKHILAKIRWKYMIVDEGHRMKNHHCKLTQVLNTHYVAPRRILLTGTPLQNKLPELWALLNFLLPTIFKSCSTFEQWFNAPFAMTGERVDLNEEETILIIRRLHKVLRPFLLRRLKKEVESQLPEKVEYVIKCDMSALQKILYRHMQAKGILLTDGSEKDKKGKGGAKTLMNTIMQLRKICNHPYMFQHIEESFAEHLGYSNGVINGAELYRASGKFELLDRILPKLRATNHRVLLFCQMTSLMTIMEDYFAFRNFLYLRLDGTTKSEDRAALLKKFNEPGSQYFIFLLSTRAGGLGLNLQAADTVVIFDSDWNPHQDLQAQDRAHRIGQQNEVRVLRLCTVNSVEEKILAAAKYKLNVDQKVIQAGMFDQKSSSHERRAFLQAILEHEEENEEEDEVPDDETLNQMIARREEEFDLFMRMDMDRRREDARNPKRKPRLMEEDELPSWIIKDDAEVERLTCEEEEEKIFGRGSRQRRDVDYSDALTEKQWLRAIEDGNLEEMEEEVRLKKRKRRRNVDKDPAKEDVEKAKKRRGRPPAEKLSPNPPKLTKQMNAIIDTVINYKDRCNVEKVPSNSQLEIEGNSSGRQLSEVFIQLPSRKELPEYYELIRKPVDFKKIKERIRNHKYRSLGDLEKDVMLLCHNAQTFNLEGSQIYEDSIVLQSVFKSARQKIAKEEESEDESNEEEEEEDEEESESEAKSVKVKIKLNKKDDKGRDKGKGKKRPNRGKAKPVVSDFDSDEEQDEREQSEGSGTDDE

Structure (SMILES) | DC50 (HiBit-BRM fusion protein) | Dmax [1] | DC50 [1] | BRM HiBit Degradation Maximum (%) (HiBit-BRM fusion protein)
Cc1ncsc1-c1ccc([C@H](C)NC(=O)[C@@H]2C[C@@H](O)CN2C(=O)[C@@H](c2cc(C3CCN(C(=O)[C@@]4(N)CCc5[nH]c6nnc(-c7ccccc7O)cc6c5C4)CC3)no2)C(C)C)cc1 (relative stereo) [Compound 103, (2S,4R)-1-[(2R)-2-(3-{1-[(6R*)-6-amino-3-(2-hydroxyphenyl)-5H,7H,8H,9H-pyridazino[3,4-blindole-6-carbonyl]piperidin-4-yl}-1,2-oxazol-5-yl)-3-methylbutanoyl]-4-hydroxy-N-[(1S)-1-[4-(4-methyl-1,3-thiazol-5-yl)phenyl]ethyl]pyrrolidine-2-carboxamide] | > 100 nM | < 50% |  | B (“B” indicates maximum degradation ≥ 50%)
Cc1ncsc1-c1ccc([C@H](C)NC(=O)[C@@H]2C[C@@H](O)CN2C(=O)[C@@H](c2cc(C3CCN(C(=O)[C@]4(N)CCc5[nH]c6nnc(-c7ccccc7O)cc6c5C4)CC3)no2)C(C)C)cc1 (relative stereo) [Compound 104, (2S,4R)-1-[(2R)-2-(3-{1-[(6R*)-6-amino-3-(2-hydroxyphenyl)-5H,7H,8H,9H-pyridazino[3,4-blindole-6-carbonyl]piperidin-4-yl}-1,2-oxazol-5-yl)-3-methylbutanoyl]-4-hydroxy-N-[(1S)-1-[4-(4-methyl-1,3-thiazol-5-yl)phenyl]ethyl]pyrrolidine-2-carboxamide] | > 100 nM | < 50% |  | B (“B” indicates maximum degradation ≥ 50%)
Cc1ncsc1-c1ccc([C@H](C)NC(=O)[C@@H]2C[C@@H](O)CN2C(=O)[C@@H](c2cc(-c3cnc(N4CCc5[nH]c6nnc(-c7ccccc7O)cc6c5C4)nc3)no2)C(C)C)cc1 (single isomer, unassigned) [Compound 85] | > 10 nM | > 75% | > 100 nM | A (“A” indicates maximum degradation ≥ 75%)
Cc1ncsc1-c1ccc([C@H](C)NC(=O)[C@@H]2C[C@@H](O)CN2C(=O)C(c2cc(OCC(=O)N[C@@]3(C(=O)O)CCc4[nH]c5nnc(-c6ccccc6O)cc5c4C3)no2)C(C)C)cc1 (single isomer, unassigned) [Compound 88] |  | < 50% |  | C (“C” indicates maximum degradation < 50%)
Cc1ncsc1-c1ccc([C@H](C)NC(=O)[C@@H]2C[C@@H](O)CN2C(=O)C(c2cc(OCC(=O)N[C@]3(C(=O)O)CCc4[nH]c5nnc(-c6ccccc6O)cc5c4C3)no2)C(C)C)cc1 (single isomer, unassigned) [Compound 89] |  | < 50% |  | C (“C” indicates maximum degradation < 50%)
Cc1ncsc1-c1ccc([C@H](C)NC(=O)[C@@H]2C[C@@H](O)CN2C(=O)C(c2cc(OCCN[C@]3(C(=O)O)CCc4[nH]c5nnc(-c6ccccc6O)cc5c4C3)no2)C(C)C)cc1 (single isomer, unassigned) [Compound 91] |  | < 50% |  | C (“C” indicates maximum degradation < 50%)
Cc1ncsc1-c1ccc([C@H](C)NC(=O)[C@@H]2C[C@@H](O)CN2C(=O)[C@@H](c2cc(N3CCC(c4cnc(N5CCC(c6c[nH]c7nnc(-c8ccccc8O)cc67)CC5)nc4)CC3)no2)C(C)C)cc1 (single isomer, unassigned) [Compound 92] | > 10 nM | > 75% | > 10 nM | A (“A” indicates maximum degradation ≥ 75%)
Cc1ncsc1-c1ccc([C@H](C)NC(=O)[C@@H]2C[C@@H](O)CN2C(=O)[C@H](c2cc(N3C[C@@H]4C[C@H]3CN4C(=O)[C@@H]3CCc4[nH]c5nnc(-c6ccccc6O)cc5c4C3)no2)C(C)C)cc1 (single isomer, unassigned) [Compound 100] |  | < 50% |  | C (“C” indicates maximum degradation < 50%)
Cc1ncsc1-c1ccc([C@H](C)NC(=O)[C@@H]2C[C@@H](O)CN2C(=O)[C@@H](c2cc(N3C[C@@H]4C[C@H]3CN4C(=O)[C@@H]3CCc4[nH]c5nnc(-c6ccccc6O)cc5c4C3)no2)C(C)C)cc1 (single isomer, unassigned) [Compound 102] |  | < 50% |  | A (“A” indicates maximum degradation ≥ 75%)
Cc1ncsc1-c1ccc([C@H](C)NC(=O)C2C[C@@H](O)CN2C(=O)[C@@H](c2cc(OCCN3C[C@H]4C[C@@H](c5[nH]c6nnc(-c7ccccc7O)cc6c5C)C[C@H]4C3)no2)C(C)C)cc1 (single isomer, unassigned) [Compound 108] | < 10 nM | > 75% | > 10 nM | A (“A” indicates maximum degradation ≥ 75%)
Cc1ncsc1-c1ccc([C@H](C)NC(=O)C2C[C@@H](O)CN2C(=O)[C@@H](c2cc(OCCN3C[C@H]4C[C@H](c5[nH]c6nnc(-c7ccccc7O)cc6c5C)C[C@H]4C3)no2)C(C)C)cc1 (single isomer, unassigned) [Compound 112] | < 10 nM | > 75% | > 10 nM | A (“A” indicates maximum degradation ≥ 75%)
Cc1ncsc1C12CC(CNC(=O)[C@@H]3C[C@@H](O)CN3C(=O)[C@H](c3cc(OCCN4CC(c5cc6cc(-c7ccccc7O)nnc6[nH]5)C4)no3)C(C)C)(C1)C2 (single isomer, unassigned) [Compound 114] |  | < 50% |  | C (“C” indicates maximum degradation < 50%)
Cc1ncsc1C12CC(CNC(=O)[C@@H]3C[C@@H](O)CN3C(=O)[C@@H](c3cc(OCCN4CC(c5cc6cc(-c7ccccc7O)nnc6[nH]5)C4)no3)C(C)C)(C1)C2 (single isomer, unassigned) [Compound 115] |  | < 50% |  | C (“C” indicates maximum degradation < 50%)
CC(C)[C@H](C(=O)N1C[C@H](O)C[C@H]1C(=O)N[C@@H](C)c1ccc(-c2ccccc2F)cc1)c1cc(OCCN2CC(c3cc4cc(-c5ccccc5O)nnc4[nH]3)C2)no1 (single isomer, unassigned) [Compound 117] |  | < 50% |  | C (“C” indicates maximum degradation < 50%)

The next lines start with results.

DC50 (HiBit-BRM fusion protein) | Dmax [1] | DC50 [1] | Structure (SMILES) | BRM HiBit Degradation Maximum (%) (HiBit-BRM fusion protein)
> 100 nM | > 75% | > 100 nM | Cc1ncsc1-c1ccc([C@H](C)NC(=O)[C@@H]2C[C@@H](O)CN2C(=O)[C@@H](c2cc(C3CN(C(=O)[C@H]4CCc5[nH]c6nnc(-c7ccccc7O)cc6c5C4)C3)no2)C(C)C)cc1 (relative stereo) [Compound 157, (2S,4R)-4-hydroxy-1-[(2R*)-2-(3-{1-[(6R**)-3-(2-hydroxyphenyl)-5H,6H,7H,8H,9H-pyridazino[3,4-b]indole-6-carbonyl]azetidin-3-yl}-1,2-oxazol-5-yl)-3-methylbutanoyl]-N-[(1S)-1-[4-(4-methyl-1,3-thiazol-5-yl)phenyl]ethyl]pyrrolidine-2-carboxamide] | A (“A” indicates maximum degradation ≥ 75%)
> 1000 nM | < 50% |  | Cc1ncsc1-c1ccc(CNC(=O)[C@@H]2C[C@@H](O)CN2C(=O)[C@@H](NC(=O)CCC(=O)N[C@H]2CCc3[nH]c4nnc(-c5ccccc5O)cc4c3C2)C(C)(C)C)cc1 (relative stereo) [Compound 174, N1-((S)-1-((2S,4R)-4-hydroxy-2-((4-(4-methylthiazol-5-yl)benzyl)carbamoyl)pyrrolidin-1-yl)-3,3-dimethyl-1-oxobutan-2-yl)-N4-((S)-3-(2-hydroxyphenyl)-6,7,8,9-tetrahydro-5H-pyridazino[3,4-b]indol-6-yl)succinamide] | B (“B” indicates maximum degradation ≥ 50%)
> 1000 nM | < 50% |  | Cc1ncsc1-c1ccc(CNC(=O)[C@@H]2C[C@@H](O)CN2C(=O)[C@@H](NC(=O)CCCCC(=O)N[C@H]2CCc3[nH]c4nnc(-c5ccccc5O)cc4c3C2)C(C)(C)C)cc1 (relative stereo) [Compound 175, N1-((S)-1-((2S,4R)-4-hydroxy-2-((4-(4-methylthiazol-5-yl)benzyl)carbamoyl)pyrrolidin-1-yl)-3,3-dimethyl-1-oxobutan-2-yl)-N6-((S)-3-(2-hydroxyphenyl)-6,7,8,9-tetrahydro-5H-pyridazino[3,4-b]indol-6-yl)adipamide] | A (“A” indicates maximum degradation ≥ 75%)
> 10 nM | > 50% | > 1000 nM | CC(C)[C@@H](C(=O)N1C[C@H](O)C[C@H]1C(=O)N[C@@H](C)c1ccc(-c2ccccc2F)cc1)c1cc(OCCN2CC(c3cc4cc(-c5ccccc5O)nnc4[nH]3)C2)no1 (single isomer, unassigned) [Compound 119] | A (“A” indicates maximum degradation ≥ 75%)
 | < 50% |  | Cc1ncsc1-c1ccc([C@H](C)NC(=O)[C@@H]2C[C@@H](O)CN2C(=O)[C@H](c2cc(CN3CCc4[nH]c5nnc(-c6ccccc6O)cc5c4C3)no2)C(C)C)cc1 (single isomer, unassigned) [Compound 135] | C (“C” indicates maximum degradation < 50%)
 | < 50% |  | Cc1ncsc1-c1ccc([C@H](C)NC(=O)[C@@H]2C[C@@H](O)CN2C(=O)[C@@H](c2cc(CN3CCc4[nH]c5nnc(-c6ccccc6O)cc5c4C3)no2)C(C)C)cc1 (single isomer, unassigned) [Compound 136] | C (“C” indicates maximum degradation < 50%)
 | < 50% |  | Cc1ncsc1-c1ccc([C@H](C)NC(=O)[C@@H]2C[C@@H](O)CN2C(=O)[C@@H](c2cc(CN3CC(c4cc5cc(-c6ccccc6O)nnc5[nH]4)C3)no2)C(C)C)cc1 (single isomer, unassigned) [Compound 137] | A (“A” indicates maximum degradation ≥ 75%)
